In brackets after ≈: the same amount, converted by molar mass. Structures can show the parent of a compound that is named as a salt. Where two headings read alike, the source gives them in different places.
Key:
Assay type in all cases: cell-based
[1] = system: Staphylococcus aureus 209PJC1; experiment: Minimum Growth Inhibitory Concentration (MIC), Staphylococcus aureus 209PJC1; details: read-out: Minimum Growth Inhibitory Concentration (MIC)
Source text: (§1) Minimum Growth Inhibitory Concentration (MIC) mcg/ml
1. Staphylococcus aureus 209PJC1
as §1
2. Staphylococcus aureus 209 PJC1

Proteus vulgaris GN 76 = experiment: Minimum Growth Inhibitory Concentration (MIC), Proteus vulgaris GN 76; details: GN76, read-out: Minimum Growth Inhibitory Concentration (MIC)
Source text: as §1
10. Proteus vulgaris GN 76
as §1
8. Proteus vulgaris GN 76

[2] = system: Enterobacter cloacae G0005; experiment: Minimum Growth Inhibitory Concentration (MIC), Enterobacter cloacae G0005; details: Table 1, bacterium 11: Enterobacter cloacae G0005
Source text: as §1
11. Enterobacter cloacae G0005

Bacillus subtilis = experiment: Minimum Growth Inhibitory Concentration (MIC), Bacillus subtilis; details: Table 1, bacterium 2: Bacillus subtilis
Source text: as §1

[3] = system: Streptococcus faecalis ATCC 8043; experiment: Minimum Growth Inhibitory Concentration (MIC), Streptococcus faecalis ATCC 8043; details: Enterococcus faecalis, ATCC8043; Table 1, bacterium 9: Streptococcus faecalis ATCC 8043
Source text: as §1
9. Streptococcus faecalis ATCC 8043

Serratia marcescens N 01 = experiment: Minimum Growth Inhibitory Concentration (MIC), Serratia marcescens N 01; details: N01; Table 1, bacterium 7: Serratia marcescens N 01
Source text: as §1
7. Serratia marcescens N 01

[4] = system: Klebsiella pneumoniae GN 69; experiment: Minimum Growth Inhibitory Concentration (MIC), Klebsiella pneumoniae GN 69; details: GN69; Table 1, bacterium 4: Klebsiella pneumoniae GN 69
Source text: as §1
4. Klebsiella pneumoniae GN 69

[5] = system: Pseudomonas aeruginosa MB 3833; experiment: Minimum Growth Inhibitory Concentration (MIC), Pseudomonas aeruginosa MB 3833; details: MB3833; Table 1, bacterium 8: Pseudomonas aeruginosa MB 3833
Source text: as §1
8. Pseudomonas aeruginosa MB 3833

Escherichia coli RGN 823 = experiment: Minimum Growth Inhibitory Concentration (MIC), Escherichia coli RGN 823; details: RGN823; Table 1, bacterium 3: Escherichia coli RGN 823
Source text: as §1
3. Escherichia coli RGN 823

Eshcerichia coli GN 206 = experiment: Minimum Growth Inhibitory Concentration (MIC), Escherichia coli GN 206; details: GN206, Table 2, bacterium 4: Eshcerichia coli GN 206, read-out: Minimum Growth Inhibitory Concentration (MIC)
Source text: as §1
4. Eshcerichia coli GN 206

[6] = system: Klebsiella pneumoniae PCI 602; experiment: Minimum Growth Inhibitory Concentration (MIC), Klebsiella pneumoniae PCI 602; details: PCI602; Table 2, bacterium 5: Klebsiella pneumoniae PCI 602; read-out: Minimum Growth Inhibitory Concentration (MIC)
Source text: as §1
5. Klebsiella pneumoniae PCI 602

[7] = system: Staphylococcus aureus Smith; experiment: Minimum Growth Inhibitory Concentration (MIC), Staphylococcus aureus Smith; details: Table 2, bacterium 1: Staphylococcus aureus Smith; read-out: Minimum Growth Inhibitory Concentration (MIC)
Source text: as §1
1. Staphylococcus aureus Smith

[8] = system: Salmonella typhimurium LT2; experiment: Minimum Growth Inhibitory Concentration (MIC), Salmonella typhimurium LT2; details: Salmonella enterica, read-out: Minimum Growth Inhibitory Concentration (MIC)
Source text: as §1
7. Salmonella typhimurium LT2

[9] = system: Escherichia coli NIHJ JC2; experiment: Minimum Growth Inhibitory Concentration (MIC), Escherichia coli NIHJ JC2; details: NIHJJC2; Table 2, bacterium 3: Escherichia coli NIHJ JC2; read-out: Minimum Growth Inhibitory Concentration (MIC)
Source text: as §1
3. Escherichia coli NIHJ JC2

[10] = system: Serratia marcescens No. 1; experiment: Minimum Growth Inhibitory Concentration (MIC), Serratia marcescens No. 1; details: Table 2, bacterium 11: Serratia marcescens No. 1
Source text: as §1
11. Serratia marcescens No. 1

Proteus mirabilis GN 79 = experiment: Minimum Growth Inhibitory Concentration (MIC), Proteus mirabilis GN 79; details: GN79; Table 2, bacterium 6: Proteus mirabilis GN 79; read-out: Minimum Growth Inhibitory Concentration (MIC)
Source text: as §1
6. Proteus mirabilis GN 79

Proteus rettgeri GN624 = experiment: Minimum Growth Inhibitory Concentration (MIC), Proteus rettgeri GN624; details: Providencia rettgeri; Table 2, bacterium 9: Proteus rettgeri GN624; read-out: Minimum Growth Inhibitory Concentration (MIC)
Source text: as §1
9. Proteus rettgeri GN624

[11] = Table 2, bacterium 2: Staphylococcus aureus 209 PJC1
[12] = Table 2, bacterium 8: Proteus vulgaris GN 76
[13] = Table 2, bacterium 7: Salmonella typhimurium LT2

SMILES	MIC ([1]; Table 1, bacterium 1: Staphylococcus aureus 209PJC1)	MIC (Proteus vulgaris GN 76; Table 1, bacterium 10: Proteus vulgaris GN 76)	MIC [2]	MIC (Bacillus subtilis)	MIC [3]	MIC (Serratia marcescens N 01)	MIC [4]	MIC [5]	MIC (Escherichia coli RGN 823)	MIC (Eshcerichia coli GN 206)	MIC [1, 11]	MIC [6]	MIC (Proteus vulgaris GN 76; [12])	MIC [7]	MIC [8, 13]	MIC [9]	MIC [10]	MIC (Proteus mirabilis GN 79)	MIC (Proteus rettgeri GN624)	MIC ([8]; TYPHIMURIUM)
CO/N=C(\C(=O)N[C@@H]1C(=O)N2C(C(=O)[O-])=C(CSc3cc[n+](CCS(=O)(=O)O)c4c3CCC4)CS[C@H]12)c1csc(N)n1 [Example 39, (6R,7R)-7-[(Z)-2-(2-Aminothiazol-4-yl)-2-methoxyiminoacetamido]-3-[[2,3-cyclopenteno-1-(2-sulfoethyl)pyridinium-4-yl]thiomethyl]-ceph-3-em-4-carboxylic acid sodium salt]	0.78 µg/mL	0.2 µg/mL	0.1 µg/mL	1.56 µg/mL	6.25 µg/mL	≤ 0.025 µg/mL	≤ 0.025 µg/mL	12.5 µg/mL	≤ 0.025 µg/mL	–	–	–	–	–	–	–	–	–	–	–
CO/N=C(\C(=O)N[C@@H]1C(=O)N2C(C(=O)[O-])=C(CSc3cc[n+](CC(F)(F)F)cc3)CS[C@H]12)c1csc(N)n1 [Example 80, (6R,7R)-7-[(Z)-2-(2-Aminothiazol-4-yl)-2-methoxyiminoacetamido]-3-[1-(2,2,2-trifluoroethylpyridinium-4-yl)thiomethyl]-ceph-3-em-4-carboxylate]	–	–	–	–	–	–	–	–	–	0.05 µg/mL (≈ 0.0849 µM)	0.2 µg/mL (≈ 0.34 µM)	0.2 µg/mL (≈ 0.34 µM)	0.78 µg/mL (≈ 1.33 µM)	0.2 µg/mL (≈ 0.34 µM)	0.2 µg/mL (≈ 0.34 µM)	0.2 µg/mL (≈ 0.34 µM)	0.2 µg/mL (≈ 0.34 µM)	1.56 µg/mL (≈ 2.65 µM)	0.2 µg/mL (≈ 0.34 µM)	–
CCO/N=C(\C(=O)N[C@@H]1C(=O)N2C(C(=O)[O-])=C(CSc3cc[n+](CC(F)(F)F)cc3)CS[C@H]12)c1csc(N)n1 [Example 81, (6R,7R)-7-[(Z)-2-(2-Aminothiazol-4-yl)-2-ethoxyiminoacetamido]-3-[1-(2,2,2-trifluoroethylpyridinium-4-yl)thiomethyl]-ceph-3-em-4-carboxylate]	–	–	–	–	–	–	–	–	–	≤ 0.025 µg/mL	0.39 µg/mL (≈ 0.647 µM)	0.1 µg/mL (≈ 0.166 µM)	0.39 µg/mL (≈ 0.647 µM)	0.39 µg/mL (≈ 0.647 µM)	0.05 µg/mL (≈ 0.083 µM)	0.05 µg/mL (≈ 0.083 µM)	0.05 µg/mL (≈ 0.083 µM)	0.78 µg/mL (≈ 1.29 µM)	0.1 µg/mL (≈ 0.166 µM)	–
Nc1nc(/C(=N/OCC(=O)O)C(=O)N[C@@H]2C(=O)N3C(C(=O)[O-])=C(CSc4cc[n+](CC(F)(F)F)cc4)CS[C@H]23)cs1 [Example 82, (6R,7R)-7-[(Z)-2-(2-Aminothiazol-4-yl)-2-(carboxymethoxyimino)acetamido]-3-[1-(2,2,2-trifluoroethylpyridinium-4-yl)thiomethyl]-ceph-3-em-4-carboxylic acid sodium salt]	–	–	–	–	–	–	–	–	–	0.05 µg/mL	3.13 µg/mL	≤ 0.025 µg/mL	0.05 µg/mL	3.13 µg/mL	–	0.05 µg/mL	< 0.025 µg/mL	0.05 µg/mL	< 0.025 µg/mL	< 0.025 µg/mL
CC(C)(O/N=C(\C(=O)N[C@@H]1C(=O)N2C(C(=O)[O-])=C(CSc3cc[n+](CC(F)(F)F)cc3)CS[C@H]12)c1csc(N)n1)C(=O)O [Example 83, (6R,7R)-7-[(Z)-2-(2-Aminothiazol-4-yl)-2-(carboxyprop-2-oxyimino)acetamido]-3-[1-(2,2,2-trifluoroethylpyridinium-4-yl)thiomethyl]-ceph-3-em-4-carboxylic acid sodium salt]	–	–	–	–	–	–	–	–	–	0.2 µg/mL	3.13 µg/mL	0.2 µg/mL	0.2 µg/mL	6.25 µg/mL	0.05 µg/mL	0.2 µg/mL	0.05 µg/mL	0.39 µg/mL	0.2 µg/mL	–
CO/N=C(\C(=O)N[C@@H]1C(=O)N2C(C(=O)[O-])=C(CSc3cc[n+](CCF)cc3)CS[C@H]12)c1csc(N)n1 [Example 84, (6R,7R)-7-[(Z)-2-(2-Aminothiazol-4-yl)-2-methoxyiminoacetamido]-3-[1-(2-fluoroethylpyridinium-4-yl)thiomethyl]-ceph-3-em-4-carboxylate]	–	–	–	–	–	–	–	–	–	< 0.025 µg/mL	0.2 µg/mL (≈ 0.362 µM)	0.1 µg/mL (≈ 0.181 µM)	0.2 µg/mL (≈ 0.362 µM)	0.2 µg/mL (≈ 0.362 µM)	0.05 µg/mL (≈ 0.0905 µM)	0.05 µg/mL (≈ 0.0905 µM)	0.025 µg/mL (≈ 0.0452 µM)	0.39 µg/mL (≈ 0.706 µM)	0.1 µg/mL (≈ 0.181 µM)	–
